Measurements published in ChEMBL document CHEMBL3352178, “Antidepressant- and anxiolytic-like activity of 7-phenylpiperazinylalkyl-1,3-dimethyl-purine-2,6-dione derivatives with diversified 5-HT₁A receptor functional profile” (Bioorg Med Chem, 2015).
Each block holds one compound with its values, some of them ahead of it. Calls of active or inactive are those of the source. The calls are words filed in the database; no cut-off is given here.

Columns and labels:
Mus musculus [1] = assay: Inhibition of (+/-)-DOI-induced head twitch response in mouse dosed intraperitoneally 60 mins before (+/-)-DOI injection; type: functional
Mus musculus [2] = assay: Anxiolytic-like activity in mouse assessed as increase in number of punished crossings at 20 mg/kg, ip dosed 60 mins before test by four plate test; type: functional; conditions: route intraperitoneal
Mus musculus [3] = assay: Effect on spontaneous locomotor activity in mouse at 20 mg/kg, ip; type: ADME, organism-based; design: dose 20 mg/kg, route intraperitoneal; conditions: in vivo
Mus musculus [4] = assay: Anxiolytic-like activity in mouse assessed as increase in number of punished crossings at 20 mg/kg, ip dosed 60 mins before test in presence of 0.3 mg/kg, sc 5HT1A receptor antagonist WAY 100635 by four plate test; type: functional, organism-based
Mus musculus [5] = assay: Antidepressant-like activity in mouse assessed as reduction in immobility time at 5 mg/kg, ip dosed 60 mins before test by forced swim test; type: functional; design: scale not given: the % may be the effect or the level left; conditions: route intraperitoneal
Mus musculus [6] = assay: Antidepressant-like activity in mouse assessed as reduction in immobility time at 10 mg/kg, ip dosed 60 mins before test by forced swim test; type: functional; design: scale not given: the % may be the effect or the level left; conditions: route intraperitoneal
Mus musculus [7] = assay: Effect on spontaneous locomotor activity in ip dosed mouse during 2 to 6 mins; type: ADME, organism-based; conditions: in vivo
Mus musculus [8] = assay: Antidepressant-like activity in mouse assessed as reduction in immobility time at 5 mg/kg, ip dosed 60 mins before test in presence of 0.3 mg/kg, sc 5HT1A receptor antagonist WAY 100635 by forced swim test; type: functional, organism-based
[9] = target: T1, 5-hydroxytryptamine receptor 1A (Rattus norvegicus, UniProt P19327); assay: Displacement of [3H]-8-OH-DPAT from 5-HT1AR in rat hippocampus; type: tissue-based
T1 sequence (P19327 whole entry): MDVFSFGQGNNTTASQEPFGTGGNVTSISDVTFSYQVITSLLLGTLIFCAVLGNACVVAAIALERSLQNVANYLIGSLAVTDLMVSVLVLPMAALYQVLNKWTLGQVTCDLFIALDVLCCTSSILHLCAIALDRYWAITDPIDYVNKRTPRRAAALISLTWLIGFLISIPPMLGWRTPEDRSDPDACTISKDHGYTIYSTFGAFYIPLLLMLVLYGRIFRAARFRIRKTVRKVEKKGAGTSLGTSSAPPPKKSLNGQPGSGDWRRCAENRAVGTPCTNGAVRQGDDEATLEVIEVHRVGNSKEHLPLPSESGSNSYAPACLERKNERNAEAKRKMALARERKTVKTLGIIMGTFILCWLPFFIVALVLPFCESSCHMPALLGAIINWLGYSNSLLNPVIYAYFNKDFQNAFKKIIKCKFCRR

[10] = target: 5-hydroxytryptamine receptor 2A (Rattus norvegicus, UniProt P14842); assay: Displacement of [3H]-ketanserin from 5-HT2AR in rat cortex
[11] = target: 5-hydroxytryptamine receptor 6 (Homo sapiens, UniProt P50406); assay: Displacement of [3H]LSD from human cloned 5-HT6R expressed in HEK293 cells; type: cell-based
[12] = target: 5-hydroxytryptamine receptor 7 (Homo sapiens, UniProt P34969); assay: Displacement of [3H]]-5-CT from human cloned 5-HT7R expressed in HEK293 cells; type: cell-based
D(2) dopamine receptor = D(2) dopamine receptor (Rattus norvegicus, UniProt P61169); assay: Displacement of [3H]-spiperone from dopamine D2 receptor in rat striatum
Mus musculus [13] = assay: Induction of hypothermia in mouse assessed as change in body temperature at 2.5 mg/kg, ip administered 30 mins before test and measured 30 mins post dose; type: functional, organism-based; design: dose 2.5 mg/kg
Mus musculus [14] = assay: Induction of hypothermia in mouse assessed as change in body temperature at 5 mg/kg, ip administered 30 mins before test and measured 30 mins post dose; type: functional, organism-based; design: dose 5 mg/kg
Mus musculus [15] = assay: Induction of hypothermia in mouse assessed as change in body temperature at 10 mg/kg, ip administered 30 mins before test and measured 30 mins post dose; type: functional, organism-based; design: dose 10 mg/kg
Mus musculus [16] = assay: Induction of hypothermia in mouse assessed as change in body temperature at 2.5 mg/kg, ip administered 30 mins before test and measured 60 mins post dose; type: functional, organism-based; design: dose 2.5 mg/kg
Mus musculus [17] = assay: Induction of hypothermia in mouse assessed as change in body temperature at 5 mg/kg, ip administered 30 mins before test and measured 60 mins post dose; type: functional, organism-based; design: dose 5 mg/kg
Mus musculus [18] = assay: Induction of hypothermia in mouse assessed as change in body temperature at 10 mg/kg, ip administered 30 mins before test and measured 60 mins post dose; type: functional, organism-based; design: dose 10 mg/kg
Mus musculus [19] = assay: Induction of hypothermia in mouse assessed as change in body temperature at 2.5 mg/kg, ip administered 30 mins before test and measured 90 mins post dose; type: functional, organism-based; design: dose 2.5 mg/kg
Mus musculus [20] = assay: Induction of hypothermia in mouse assessed as change in body temperature at 5 mg/kg, ip administered 30 mins before test and measured 90 mins post dose; type: functional, organism-based; design: dose 5 mg/kg
Mus musculus [21] = assay: Induction of hypothermia in mouse assessed as change in body temperature at 10 mg/kg, ip administered 30 mins before test and measured 90 mins post dose; type: functional, organism-based; design: dose 10 mg/kg
Mus musculus [22] = assay: Induction of hypothermia in mouse assessed as change in body temperature at 2.5 mg/kg, ip administered 30 mins before test and measured 120 mins post dose; type: functional, organism-based; design: dose 2.5 mg/kg
Mus musculus [23] = assay: Induction of hypothermia in mouse assessed as change in body temperature at 5 mg/kg, ip administered 30 mins before test and measured 120 mins post dose; type: functional, organism-based; design: dose 5 mg/kg
Mus musculus [24] = assay: Induction of hypothermia in mouse assessed as change in body temperature at 10 mg/kg, ip administered 30 mins before test and measured 120 mins post dose; type: functional, organism-based; design: dose 10 mg/kg
Mus musculus [25] = assay: Induction of hypothermia in mouse assessed as change in body temperature at 5 mg/kg, ip administered 30 mins before test and measured 30 mins post dose in presence of 0.3 mg/kg, sc 5HT1A receptor antagonist WAY 100635; type: functional, organism-based
Mus musculus [26] = assay: Induction of hypothermia in mouse assessed as change in body temperature at 5 mg/kg, ip administered 30 mins before test and measured 60 mins post dose in presence of 0.3 mg/kg, sc 5HT1A receptor antagonist WAY 100635; type: functional, organism-based
Mus musculus [27] = assay: Induction of hypothermia in mouse assessed as change in body temperature at 2.5 mg/kg, ip administered 30 mins before test and measured 30 mins post dose in presence of 0.3 mg/kg, sc 5HT1A receptor antagonist WAY 100635; type: functional, organism-based
Mus musculus [28] = assay: Induction of hypothermia in mouse assessed as change in body temperature at 2.5 mg/kg, ip administered 30 mins before test and measured 60 mins post dose in presence of 0.3 mg/kg, sc 5HT1A receptor antagonist WAY 100635; type: functional, organism-based
Rattus norvegicus [29] = assay: Induction of lower lip retraction in rat assessed as lower lip retraction scores at 0.5 mg/kg, ip dosed 15 mins before test; type: functional; conditions: route intraperitoneal
Rattus norvegicus [30] = assay: Induction of lower lip retraction in rat assessed as lower lip retraction scores at 1 mg/kg, ip dosed 15 mins before test; type: functional; conditions: route intraperitoneal
Rattus norvegicus [31] = assay: Induction of lower lip retraction in rat assessed as lower lip retraction scores at 1 mg/kg, ip dosed 45 mins after 0.3 mg/kg, sc 5HT1A receptor antagonist WAY 100635; type: functional
Mus musculus [32] = assay: Inhibition of (+/-)-DOI-induced head twitch response in mouse assessed as head twitches per 20 mins at 2.5 mg/kg, ip dosed 60 mins before (+/-)-DOI injection (reference value: 21.6 +/- 3.4/20 mins); type: functional; conditions: route intraperitoneal
Mus musculus [33] = assay: Inhibition of (+/-)-DOI-induced head twitch response in mouse assessed as head twitches per 20 mins at 5 mg/kg, ip dosed 60 mins before (+/-)-DOI injection (reference value: 21.6 +/- 3.4/20 mins); type: functional; conditions: route intraperitoneal
Mus musculus [34] = assay: Inhibition of (+/-)-DOI-induced head twitch response in mouse assessed as head twitches per 20 mins at 10 mg/kg, ip dosed 60 mins before (+/-)-DOI injection (reference value: 21.6 +/- 3.4/20 mins); type: functional; conditions: route intraperitoneal
Mus musculus [35] = assay: Inhibition of (+/-)-DOI-induced head twitch response in mouse assessed as head twitches per 20 mins at 20 mg/kg, ip dosed 60 mins before (+/-)-DOI injection (reference value: 21.6 +/- 3.4/20 mins); type: functional; conditions: route intraperitoneal
Mus musculus [36] = assay: Antidepressant-like activity in mouse assessed as reduction in immobility time at 0.625 mg/kg, ip dosed 60 mins before test by forced swim test; type: functional; design: scale not given: the % may be the effect or the level left; conditions: route intraperitoneal
Mus musculus [37] = assay: Antidepressant-like activity in mouse assessed as reduction in immobility time at 1.25 mg/kg, ip dosed 60 mins before test by forced swim test; type: functional; design: scale not given: the % may be the effect or the level left; conditions: route intraperitoneal
Mus musculus [38] = assay: Antidepressant-like activity in mouse assessed as reduction in immobility time at 0.625 mg/kg, ip dosed 60 mins before test in presence of 0.3 mg/kg, sc 5HT1A receptor antagonist WAY 100635 by forced swim test; type: functional, organism-based
Mus musculus [39] = assay: Induction of hypothermia in mouse assessed as change in body temperature at 10 mg/kg, ip administered 30 mins before test and measured 30 mins post dose in presence of 0.3 mg/kg, sc 5HT1A receptor antagonist WAY 100635; type: functional, organism-based
Mus musculus [40] = assay: Induction of hypothermia in mouse assessed as change in body temperature at 10 mg/kg, ip administered 30 mins before test and measured 60 mins post dose in presence of 0.3 mg/kg, sc 5HT1A receptor antagonist WAY 100635; type: functional, organism-based
Rattus norvegicus [41] = assay: Induction of lower lip retraction in rat assessed as lower lip retraction scores at 5 mg/kg, ip dosed 15 mins before test; type: functional; conditions: route intraperitoneal
Rattus norvegicus [42] = assay: Induction of lower lip retraction in rat assessed as lower lip retraction scores at 10 mg/kg, ip dosed 15 mins before test; type: functional; conditions: route intraperitoneal
Rattus norvegicus [43] = assay: Inhibition of 8-OH-DPAT-induced lower lip retraction in rat assessed as lower lip retraction scores at 5 mg/kg, ip dosed 45 mins before 8-OH-DPAT; type: functional; conditions: route intraperitoneal
Rattus norvegicus [44] = assay: Induction of lower lip retraction in rat assessed as lower lip retraction scores at 10 mg/kg, ip dosed 45 mins after 0.3 mg/kg, sc 5HT1A receptor antagonist WAY 100635; type: functional

D(2) dopamine receptor, sequence (P61169 whole entry): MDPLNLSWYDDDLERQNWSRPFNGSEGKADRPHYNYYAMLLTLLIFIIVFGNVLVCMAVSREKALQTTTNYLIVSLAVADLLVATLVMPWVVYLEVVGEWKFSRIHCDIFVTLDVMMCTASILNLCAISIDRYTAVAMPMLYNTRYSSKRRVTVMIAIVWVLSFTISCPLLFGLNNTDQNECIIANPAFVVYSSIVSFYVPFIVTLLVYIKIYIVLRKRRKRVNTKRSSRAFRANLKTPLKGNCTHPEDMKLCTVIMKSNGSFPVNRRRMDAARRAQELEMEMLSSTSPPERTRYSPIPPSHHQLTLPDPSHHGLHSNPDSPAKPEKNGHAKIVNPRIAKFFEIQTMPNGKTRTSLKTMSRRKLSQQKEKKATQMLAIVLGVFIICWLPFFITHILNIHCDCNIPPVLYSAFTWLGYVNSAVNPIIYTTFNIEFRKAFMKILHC
5-hydroxytryptamine receptor 7, sequence (P34969 whole entry): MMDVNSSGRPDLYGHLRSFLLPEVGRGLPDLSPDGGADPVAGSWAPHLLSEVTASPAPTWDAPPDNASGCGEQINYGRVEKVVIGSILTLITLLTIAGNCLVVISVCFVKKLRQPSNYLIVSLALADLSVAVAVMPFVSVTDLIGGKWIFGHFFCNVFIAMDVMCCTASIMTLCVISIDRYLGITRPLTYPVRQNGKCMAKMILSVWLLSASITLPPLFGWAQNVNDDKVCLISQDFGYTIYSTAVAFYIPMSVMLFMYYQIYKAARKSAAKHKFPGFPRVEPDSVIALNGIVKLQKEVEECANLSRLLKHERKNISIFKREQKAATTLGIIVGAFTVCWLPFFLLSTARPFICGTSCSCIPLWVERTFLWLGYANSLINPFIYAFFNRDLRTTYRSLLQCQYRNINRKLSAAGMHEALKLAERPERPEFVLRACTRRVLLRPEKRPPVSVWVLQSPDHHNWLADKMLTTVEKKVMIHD
5-hydroxytryptamine receptor 6, sequence (P50406 whole entry): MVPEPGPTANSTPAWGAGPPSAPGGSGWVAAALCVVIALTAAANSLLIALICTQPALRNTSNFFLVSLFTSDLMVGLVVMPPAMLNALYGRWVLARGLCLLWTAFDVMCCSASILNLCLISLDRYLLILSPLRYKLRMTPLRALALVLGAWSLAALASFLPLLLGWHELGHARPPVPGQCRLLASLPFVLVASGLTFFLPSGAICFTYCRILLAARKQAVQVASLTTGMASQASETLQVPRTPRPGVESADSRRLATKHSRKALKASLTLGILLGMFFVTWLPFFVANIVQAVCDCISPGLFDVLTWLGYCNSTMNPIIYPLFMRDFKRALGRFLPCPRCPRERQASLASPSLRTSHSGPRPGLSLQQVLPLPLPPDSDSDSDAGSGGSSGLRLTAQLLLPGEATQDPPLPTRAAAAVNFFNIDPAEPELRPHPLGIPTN
5-hydroxytryptamine receptor 2A, sequence (P14842 whole entry): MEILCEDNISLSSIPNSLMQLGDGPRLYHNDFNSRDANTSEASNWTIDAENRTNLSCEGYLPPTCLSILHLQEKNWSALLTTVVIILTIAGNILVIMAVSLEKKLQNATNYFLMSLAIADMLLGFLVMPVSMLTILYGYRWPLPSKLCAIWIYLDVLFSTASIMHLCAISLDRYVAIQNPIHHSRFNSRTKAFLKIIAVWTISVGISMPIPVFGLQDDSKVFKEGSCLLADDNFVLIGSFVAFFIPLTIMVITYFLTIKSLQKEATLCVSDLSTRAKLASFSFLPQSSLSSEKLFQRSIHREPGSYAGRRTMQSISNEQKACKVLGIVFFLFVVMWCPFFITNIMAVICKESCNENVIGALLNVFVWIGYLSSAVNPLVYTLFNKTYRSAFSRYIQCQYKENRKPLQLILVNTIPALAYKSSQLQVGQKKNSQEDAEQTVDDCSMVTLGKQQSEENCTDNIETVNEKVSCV

Ki [9]: 1 nM
Ki [10]: 102 nM
Ki [11]: 5150 nM
Ki [12]: 479 nM
Ki (D(2) dopamine receptor): 195 nM
SMILES: Cl.Cn1c(=O)c2c(ncn2CCCCN2CCN(c3cccc(Cl)c3)CC2)n(C)c1=O
inhibition (Mus musculus [1]): Dose-dependent effect
ED50 (Mus musculus [1]; ip, read-out: ID50 (the source's name)): 5.09 mg/kg
Activity (Mus musculus [2]): 57%
Activity (Mus musculus [3]): Non-toxic
Activity (Mus musculus [4]): inactive
Activity (Mus musculus [5]): 37%
Activity (Mus musculus [6]): 30%
Activity (Mus musculus [7]): Non-toxic
Activity (Mus musculus [8]): inactive
deltaT (Mus musculus [13]): -1.8 °C
deltaT (Mus musculus [14]): -2.1 °C
deltaT (Mus musculus [15]): -2 °C
deltaT (Mus musculus [16]): -0.8 °C
deltaT (Mus musculus [17]): -1.1 °C
deltaT (Mus musculus [18]): -1.7 °C
deltaT (Mus musculus [19]): -0.1 °C
deltaT (Mus musculus [20]): -0.6 °C
deltaT (Mus musculus [21]): -1.3 °C
deltaT (Mus musculus [22]): 0 °C
deltaT (Mus musculus [23]): -0.2 °C
deltaT (Mus musculus [24]): 0.8 °C
deltaT (Mus musculus [25]): -1.5 °C
deltaT (Mus musculus [26]): -0.6 °C
deltaT (Mus musculus [27]): -0.8 °C
deltaT (Mus musculus [28]): -0.2 °C
Activity (Rattus norvegicus [29]): 0.3
Activity (Rattus norvegicus [30]): 1.5
Activity (Rattus norvegicus [31]): 0.1
Activity (Mus musculus [32]): 11
Activity (Mus musculus [33]): 7.7
Activity (Mus musculus [34]): 3.8
Activity (Mus musculus [35]): 3.2

Ki [9]: 1 nM
Ki [10]: 598 nM
Ki [11]: 8990 nM
Ki [12]: 294 nM
Ki (D(2) dopamine receptor): 33 nM
SMILES: COc1ccccc1N1CCN(CCCCCn2cnc3c2c(=O)n(C)c(=O)n3C)CC1.Cl
Activity (Mus musculus [36]): 30%
Activity (Mus musculus [37]): 35%
Activity (Mus musculus [7]): Non-toxic
Activity (Mus musculus [38]): inactive
deltaT (Mus musculus [14]): -1 °C
deltaT (Mus musculus [15]): -2.1 °C
deltaT (Mus musculus [17]): -0.2 °C
deltaT (Mus musculus [18]): -1 °C
deltaT (Mus musculus [20]): 0.3 °C
deltaT (Mus musculus [21]): -0.9 °C
deltaT (Mus musculus [23]): 0.3 °C
deltaT (Mus musculus [24]): -0.4 °C
deltaT (Mus musculus [39]): -1.8 °C
deltaT (Mus musculus [40]): -1.6 °C
Activity (Rattus norvegicus [41]): 0.6
Activity (Rattus norvegicus [42]): 0.8
Activity (Rattus norvegicus [43]): 2.1
Activity (Rattus norvegicus [44]): 0.1
